From patent US20240262812A1, “N-SUBSTITUTED PHENYLSULFONAMIDE COMPOUND AND USE THEREOF” (Shanghai Leado Pharmatech Co., Ltd., priority 2021, published 2024)

Test system: DNBS induced colitis in Wistar rats
Test: DNBS induced colitis model in Wistar rats
Type: in vivo, rat
Parameters: Degree of adhesion (score) / Degree of intestinal infarction (score) / Severity of ulcer (score) / Degree of intestinal wall thickening (score) / Macroscopic colon score: scale not given here
Details: oral once a day Day 0 to Day 6, compounds 10 mg/kg, osalazine sodium 300 mg/kg; for Degree of adhesion (score) / Degree of intestinal infarction (score) / Degree of intestinal wall thickening (score) / Severity of ulcer (score): mean score per Table 4; for Ulcer length / Ulcer width: mean
Text: The therapeutic effect of compounds prepared in some examples of the present invention on 2,4-dinitrobenzenesulfonic acid (DNBS) induced ulcerative colitis in Wistar rats (corresponding to Crohn's disease) was investigated.
• Animal species and strains: Wistar rats • Administration record: No administration history • Gender and weight: Male, about 150 g • Breeding party/supplier: Shanghai SLAC Laboratory Animal Co., Ltd • Adaptation period: 5 days • Room: Regular Area Rooms • Indoor temperature: 20-26° C. • Indoor relative humidity: 40-70% • Lighting: Fluorescent lighting, 12-hour illumination (08:00-20:00) and 12-hour no illumination • Animal feeding: 2-4 rats per cage (same administration group) • Food: Unlimited access to feed (disinfected by irradiation, Jiangsu Xietong Pharmaceutical Bio-engineering Co., Ltd., China) • Water: Unlimited access to drinking water (treated with reverse osmosis and high-pressure sterilization)
A total of 80 Wistar rats were purchased from Shanghai SLAC Laboratory Animal Co., Ltd, of which 10 were used as backup animals to select animals with suitable weight range included in the groups, in order to control the fluctuation of disease severity caused by weight fluctuations.
BioBook software was used to screen 70 animals for random grouping based on animal weight to ensure that the weight values of each group of animals were similar to reduce bias.
3.1 DNBS powder was dissolved in 30% ethanol with a final concentration of 60 mg/mL.
3.2 Induction of colorectal inflammation: Before the experiment, rats were fasted for 40 hours and subcutaneously injected with 5% glucose saline during the fasting period. On the day 0 of the experiment, fasting rats were anesthetized by intraperitoneal injection of Zoletil and 5 mg/kg Xylazine. G2 group-G7 group, a hose was extended from the anus to the left curvature of the colorectum, and colorectal inflammation in rats was induced with DNBS enema. The normal control group (G1) was treated with 30% ethanol enema using the same method.
3.3. Dosage regimen: After DNBS induction in G1 and G2 groups of animals, solvent was administered. After DNBS induction in G3 group, 300 mg/kg of oxalazine sodium was administered. After DNBS induction in G4 to G7 groups, 10 mg/kg of the compounds of the present invention were administered respectively. Please refer to Table 3 for the administration time, specific administration dosage, and administration route. Starting from day 0 of modeling, the drugs were administered continuously for 7 days, and the animals were euthanized on day 6.
3.4 Testing indicators: After the experiment, all animals were euthanized by inhaling excessive CO2 and dislocation of cervical vertebra. After the abdominal cavity was cut open, the colorectum was taken out and the length of it was immediately measured. Then the colorectum was longitudinally cut open and rinsed clean. The weight of the colorectum and the area of the ulcer were recorded and the whole was photographed. At the same time, the damage to the rat colorectum was evaluated macroscopically according to Table 4.
The health status of animals and their comprehensive response to surgery and medication were observed every day.
The experimental data was calculated as mean±standard error. Statistical analysis was performed using Graphpad Prism, SPSS, or Sigmaplot software. The specific data is presented in the form of charts. P<0.05 is considered to have statistical differences.

Row | SMILES | Degree of adhesion (score) | Degree of intestinal infarction (score) | Degree of intestinal wall thickening (score) | Severity of ulcer (score) | Ulcer length [cm] | Ulcer width [cm]
1 | CNCc1ccc(-c2cc[nH]n2)c(NS(=O)(=O)c2ccccc2)c1 [IA-55, N-(5-((methylamino)methyl)-2-(1H-pyrazol-3-yl)phenyl)benzenesulfonamide] | 0.10 | 0.10 | 0.30 | 1.20 | 0.60 | 0.40
2 | CNCc1ccc(-c2nccs2)c(NS(=O)(=O)c2ccccc2)c1 [IA-51, N-(5-((methylamino)methyl)-2-(thiazol-2-yl)phenyl)benzenesulfonamide] | 0.07 | 0.00 | 0.27 | 0.60 | 0.31 | 0.20
3 | NCc1ccc(NS(=O)(=O)c2ccsc2)c(-c2ccco2)c1 [ID-5] | 0.00 | 0.00 | 0.10 | 0.70 | 0.34 | 0.12
4 | CNCc1ccc(NS(=O)(=O)c2ccsc2)c(-c2ccco2)c1 [IA-30] | 0.00 | 0.00 | 0.13 | 0.80 | 0.33 | 0.19
